The source of these data is patent US20240425523A1, “Compounds for the Degradation of EGFR Kinase” (Beigene Switzerland GMBH, priority 2023, published 2024).

Format in all cases: cell-based
The target of experiment [1] is T1, EGFR L858R (BaF3-L858R cells) (Homo sapiens, UniProt P00533, L858R).
T1 construct: host or cells: BaF3
Nature of the experiment: Cell degradation of EGFR, HTRF assay, BaF3-L858R cells. Particulars: 16 h treatment; for DC50: EGFR degradation. The method, boiled down: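 BaF3-L858R cells treated 16 h at 37° C, 5% CO2 with compound (top 10 uM final, 5-fold, 8 doses, 0.1% DMSO). DC50 from four-parameter fit; Dmax is maximum percent degradation.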
In general terms: TR-FRET usually uses a lanthanide donor and a delayed reading to cut background.

In experiment [2] the target is T2, EGFR-L858R/C797S (H1975-clone #8 cells) (Homo sapiens, UniProt P00533, C797S/L858R).
T2 construct: expressed in transfected cells; host or cells: H1975 (endogenous EGFR knocked out, clone #8)
The experiment can be described thus: Cell degradation of EGFR, HTRF assay, H1975-clone#8 (L858R/C797S) cells. Particulars: 16 h treatment; for DC50: EGFR degradation.

Experiment [3] has as its target T3, p-EGFR L858R (BaF3-L858R cells) (Homo sapiens, UniProt P00533, L858R).
T3 construct: host or cells: BaF3
Nature of the experiment: Cell p-EGFR inhibition assay, HTRF, BaF3-L858R cells. Particulars: 16 h treatment; for Imax (%): maximum percentage of pEGFR inhibition; for IC50: pEGFR inhibition. How it is done:
BaF3-L858R (abbv. L858R) cell were purchased from Kangyuan Bochuang Biotechnology (Beijing) Co., Ltd.
(§1) H1975-#23 and BaF3-L858R cells are treated with compounds diluted in 0.1% DMSO cell culture medium on day 2, incubate for 16 h, 37° C., 5% CO2. the final concentration of compounds in all assay is start with 10 uM, 5-fold dilution, total 8 doses were included.
(§2) After 16 h treatment, for H1975-#23 cells, add 50 ul HTRF 1× lysis buffer to each well; for BaF3-L858R cells, add 20 μl 4× lysis buffer to each well; seal the plate and incubate 1 hour at room temperature on a plate shaker; Once the cells are lysed, 16 μL of cell lysate are transferred to a PE 384-well HTRF detection plate; 4 μL of pre-mixed HTRF antibodies are added to each well; Cover the plate with a plate sealer, spin 1000 rpm for 1 min, Incubate overnight at room temperature; Read on BMG PheraStar with HTRF protocol (337 nm-665 nm-620 nm).
(§3) High control=Cell group with added DMSO and without compound, indicating microplate readings without p-EGFR inhibited.
(§4) Imax is the maximum percentage of inhibition.
(§5) The IC50 value of a compound can be obtained by fitting the following equation.
(§6) Wherein, X and Y are known values, and IC50, Hillslope, Top and Bottom are the parameters obtained by fitting with software. […] The experimental data were fitted by calculating and analyzing with Dotmatics data analysis software.

Experiment [4] deals with p-EGFR Del19/C797S (H1975-clone #23 cells) (Homo sapiens, UniProt P00533). Nature of the experiment: Cell p-EGFR inhibition assay, HTRF, H1975-clone#23 (DEL19/C797S) cells. Particulars: 16 h treatment; for Imax (%): maximum percentage of pEGFR inhibition; for IC50: pEGFR inhibition. How it is done:
The EGFR over-expressed cells then underwent knockout, in which the EGFR targeting sgRNA was designed to only target the endogenous EGFR copies and preserve the exogenous EGFR copies. Followed by the knockout, the edited H1975 cells were seeded in 96 well plates at the concentration of 1 cell/well, cultured for about 2 weeks to allow single clones formation. The formed clones were screened by DNA sequencing and whole exon sequencing analysis for the desired edition.
as §1, §2, §3, §4, §5, §6

[5] abbreviates: maximum percentage of degradation.

Consider `Cc1cc2cc(n1)-c1c(C)nn(C)c1OC[C@H]1CC[C@H](C1)CN1/C(=N/C2=O)Nc2ccc(N3CCC(CN(C)C4CCN(c5cc(F)c([C@H]6CCC(=O)NC6=O)c(F)c5)CC4)CC3)cc21` [Example 138, (R)-3-(2,6-difluoro-4-(4-(methyl((1-((7^1R,7^3S,E)-1^1,1^3,2^6-trimethyl-3-oxo-5^2′5^3-dihydro-1^1H,5^1H-9-oxa-4-aza-5(2,1)-benzo[d]imidazola-2(2,4)-pyridina-1(4,5)-pyrazola-7(1,3)-cyclopentanacyclononaphane-5^6-yl)piperidin-4-yl)methyl)amino)piperidin-1-yl)phenyl)piperidine-2,6-dione], for which the DC50 in experiment [1] is 3.61 nM; in experiment [2], 1.27 nM. The Dmax in experiment [1] (setting [5]) was 85.5%; in experiment [2] (setting [5]) it was 83.4%. In addition, the entries for the “Imax (%)” value in experiment [3] and in experiment [4] were 104.27% and 102.96%, respectively. Besides, the IC50 in experiment [3] worked out at 7.09 nM; in experiment [4], 1.37 nM.
As to `COC[C@@H]1CN(c2cc3c(cc2C)N/C2=N\C(=O)c4cc(C)nc(c4)-c4cnn(C)c4OC[C@H]4CC[C@H](C4)CN23)CCN1C1CCN(c2cc(F)c([C@H]3CCC(=O)NC3=O)c(F)c2)CC1` [Example 96, (R)-3-(2,6-difluoro-4-(4-((S)-2-(methoxymethyl)-4-((7R,7^3S,E)-1^1,2^6,5^5-trimethyl-3-oxo-5^2,5^3-dihydro-1^1H,5^1H-9-oxa-4-aza-5(2,1)-benzo[d]imidazola-2(2,4)-pyridina-1(4,5)-pyrazola-7(1,3)-cyclopentanacyclononaphane-5^6-yl)piperazin-1-yl)piperidin-1-yl)phenyl)piperidine-2,6-dione], the results for the DC50 in experiment [1] and in experiment [2] were 3.41 nM and 3.15 nM, respectively. For the same compound, the Dmax in experiment [1] (setting [5]) is 86.6%; in experiment [2] (setting [5]), 82.7%. The entries for the “Imax (%)” value in experiment [3] and in experiment [4] were 100.3% and 100.9%, respectively. Besides, the IC50 in experiment [3] is 6.3 nM; in experiment [4], 0.8 nM.
For the compound `COC[C@@H]1CN(c2ccc3c(c2)N2CC4CC[C@H](COc5c(c(C)nn5C)-c5cc(cc(C)n5)C(=O)/N=C/2N3)C4)CCN1C1CCN(c2cc(F)c([C@H]3CCC(=O)NC3=O)c(F)c2)CC1` [Example 80, (R)-3-(2,6-difluoro-4-(4-((S)-2-(methoxymethyl)-4-((7R,7^3S,E)-1^1,1^3,2^6-trimethyl-3-oxo-5^2,5^3-dihydro-1^1H,5^1H-9-oxa-4-aza-5(2,1)-benzo[d]imidazola-2(2,4)-pyridina-1(4,5)-pyrazola-7(1,3)-cyclopentanacyclononaphane-5^6-yl)piperazin-1-yl)piperidin-1-yl)phenyl)piperidine-2,6-dione], the DC50 in experiment [1] amounted to 1.73 nM; in experiment [2], 5.24 nM. Moreover, the figures for the Dmax in experiment [1] (setting [5]) and in experiment [2] (setting [5]) were 88.1% and 82.4%, respectively. For the same compound, the “Imax (%)” value was determined as 91.7% in experiment [3] and 99.9% in experiment [4]. The figures for the IC50 in experiment [3] and in experiment [4] were 3.8 nM and 1.6 nM, respectively.
With `Cc1cc2cc(n1)-c1c(C)nn(C)c1OC[C@H]1CC[C@H](C1)CN1/C(=N/C2=O)Nc2ccc(N3CCN(C4CCN(c5cc(F)c([C@H]6CCC(=O)NC6=O)c(F)c5)CC4)[C@H](C)C3)cc21` [Example 192, (R)-3-(2,6-difluoro-4-(4-((R)-2-methyl-4-((7^1R,7^3S,E)-1^1,1^3,2^6-trimethyl-3-oxo-5^2,5^3-dihydro-1^1H,5^1H-9-oxa-4-aza-5(2,1)-benzo[d]imidazola-2(2,4)-pyridina-1(4,5)-pyrazola-7(1,3)-cyclopentanacyclononaphane-5^6-yl)piperazin-1-yl)piperidin-1-yl)phenyl)piperidine-2,6-dione], the half-maximal degradation concentration (DC50) in experiment [1] worked out at 2.42 nM; in experiment [2] it was 1.01 nM. The maximal degradation (Dmax) in experiment [1] (setting [5]) was determined as 87.9%; in experiment [2] (setting [5]), 88.8%. The “Imax (%)” value worked out at 89.34% in experiment [3] and 99.96% in experiment [4]. Besides, the IC50 stood at 1.53 nM in experiment [3] and 1.39 nM in experiment [4].
With `Cc1cc2cc(n1)-c1cnn(C)c1OC[C@H]1CC[C@H](C1)CN1/C(=N/C2=O)Nc2ccc(N3CCN(CC4CN(c5ccc6c(c5)CN(C5CCC(=O)NC5=O)C6=O)C4)CC3)cc21` (some centres unmarked) [Example 35, 3-(5-(3-((4-((7^1R,7^3S,E)-1^1,2^6-dimethyl-3-oxo-5^2,5^3-dihydro-1^1H,5^1H-9-oxa-4-aza-5(2,1)-benzo[d]imidazola-2(2,4)-pyridina-1(4,5)-pyrazola-7(1,3)-cyclopentanacyclononaphane-5^6-yl)piperazin-1-yl)methyl)azetidin-1-yl)-1-oxoisoindolin-2-yl)piperidine-2,6-dione], the DC50 in experiment [1] worked out at 0.49 nM; in experiment [2], 0.6 nM. The Dmax in experiment [1] (setting [5]) was 91.8%; in experiment [2] (setting [5]), 58%. In addition, the “Imax (%)” value is 91.6% in experiment [3] and 101.1% in experiment [4]. The 50% inhibitory concentration (IC50) turned out to be 1.3 nM in experiment [3] and 0.5 nM in experiment [4].
Regarding `Cc1cc2cc(n1)-c1c(C)nn(C)c1OC[C@H]1CC[C@H](C1)CN1/C(=N/C2=O)Nc2ccc(N3CCN([C@H]4CCN(c5cnc(C6CCC(=O)NC6=O)cc5C)CC4(F)F)CC3)cc21` (stereo partly drawn) [Example 101, 3-(5-((S)-3,3-difluoro-4-(4-((7^1R,7^3S,E)-1^1,1^3,2^6-trimethyl-3-oxo-5^2,5^3-dihydro-1^1H,5^1H-9-oxa-4-aza-5(2,1)-benzo[d]imidazola-2(2,4)-pyridina-1(4,5)-pyrazola-7(1,3)-cyclopentanacyclononaphane-5^6-yl)piperazin-1-yl)piperidin-1-yl)-4-methylpyridin-2-yl)piperidine-2,6-dione], the DC50 was found to be 2.22 nM in experiment [1] and 1.58 nM in experiment [2]. Moreover, the figures for the Dmax in experiment [1] (setting [5]) and in experiment [2] (setting [5]) were 81.8% and 90.2%, respectively. For the same compound, the “Imax (%)” value in experiment [3] worked out at 106.4%; in experiment [4], 101%. Moreover, the IC50 was 3.5 nM in experiment [3] and 1 nM in experiment [4].
As to “3-((5-(4-((S)-2-(methoxymethyl)-4-((7^1R,7^3S,E)-1^1,1^3,2^6-trimethyl-3-oxo-5^2,5^3-dihydro-1^1H,5^1H-9-oxa-4-aza-5(2,1)-benzo[d]imidazola-2(2,4)-pyridina-1(4,5)-pyrazola-7(1,3)-cyclopentanacyclononaphane-5^6-yl)piperazin-1-yl)piperidin-1-yl)-4,6-dimethylpyridin-2-yl)oxy)piperidine-2,6-dione [Example 167]”, the DC50 in experiment [1] was found to be 4.72 nM; in experiment [2], 4.33 nM. Also, the “Dmax (%)” value was found to be 83.25% in experiment [1] (setting [5]) and 88.56% in experiment [2] (setting [5]). Also, the results for the “Imax (%)” value in experiment [3] and in experiment [4] were 98.09% and 102.84%, respectively. Also, the IC50 in experiment [3] was determined as 6.86 nM; in experiment [4], 3.01 nM.

By DC50 is commonly meant the midpoint of the concentration-degradation curve. High values mean a less potent degrader, low ones a more potent degrader. In general, Dmax refers to the greatest extent of degradation seen. A low value points to a partial loss of target. The term IC50 denotes the concentration that gives 50% inhibition. Higher therefore signals weaker potency in that assay.
